≈ marks a conversion by molar mass, not a printed value. Where “and” joins values, the source holds several entries; their conditions need not be identical. Equal values may be shown once. Read-outs that look alike come from different tables or passages of the source.
Legend:
[1] = test system: novel influenza virus (K09); experiment: microbe, parasite or virus in culture; assay type: cell-based; settings: for EC50: MDCK, 72 h, read-out: Plaque reduction (Experimental Example 2) EC50
[2] = test system: cell (MDCK) infected with an influenza virus (K09); experiment: Cytotoxicity assay using MTT; assay type: cell-based; settings: compound 24 hours
Protocol: (§1) In this experiment, a cell was infected with a virus, and then the virus was directly treated with a compound so as to determine if the virus-infected cell has toxicity. For this, a cell (MDCK) was infected with an influenza virus (K09) for 1 hour, and treated with the compound with different concentrations for 24 hours. Then, the cell was treated with a MTT reagent for 1 hour. After 1 hour, a formazan crystal produced by the MTT reagent was dissolved in DMSO, and the absorbance was measured by an ELISA reader so as to determine CC50.
(§2) measured by MTT assay. A maximum concentration of the compound, at which the number of cells is reduced to half or more compared to that of a control group

[3] = test system: influenza virus (K09) expressing GFP; assay type: cell-based; design: key: ◯ = effective; X = ineffective
[4] = test system: H1N1 influenza virus (solomon); experiment: microbe, parasite or virus in culture; assay type: cell-based
[5] = test system: novel influenza virus (B/Field); experiment: microbe, parasite or virus in culture; assay type: cell-based
[6] = Acute toxicity test through oral administration in a rat; assay type: in vivo; settings: male SD-Rat, single oral administration, 14 days observation; for LD50 at 14 days: Sprague-Dawley (SD), in vivo
Protocol: The acute toxicity of the inventive compound was determined through oral administration in a rat. Since the compound is expected to be orally administered in a clinical situation, an oral administration route was selected. A male rat aged 6 weeks (SD-Rat, 220±30 g) was subjected to quarantine, and acclimated for 1 week under a condition of lighting of 12 hours (08:00˜20:00), and luminance of 150-300 Lux at 22±3° C. at a relative humidity of 50±20%, while being freely fed with feed and water. Each of a control group and an experimental group include 8 rats. The control group was orally administered with 0.5% HPMC, and the experimental group was orally administered with a material (different concentrations) suspended in 0.5% HPMC, by using a sonde in an amount in proportion to the measured weight of each individual.
The concentration of the drug administered to the experimental group was set as 2000 mg/kg (the highest concentration for a single dose administration in a non-clinical test), and 1000 mg/kg, and 500 mg/kg (with a common ratio). For 14 days from drug administration, clinical symptoms were observed while the weight change was measured. Test animals that died during the test were subjected to autopsy, and abnormalities of main organs (heart, liver, lung, spleen, kidney, and large intestine) were observed and recorded. On the last day of the test (on the 14th day from the administration), all individuals were subjected to autopsy, and the changes of the organs caused by a test material were observed and compared to those in the control group. In the control group, no rats had died, and abnormalities were not observed through autopsy.
Each group was orally administered in a concentration of 500 mg/kg, 1000 mg/kg, and 2000 mg/kg. For 14 days from the administration, according to the test method, clinical symptoms were observed. […] Also, in the groups administered in various amounts, no individuals died. […] Further, no abnormal responses were observed, and from the autopsy results, no peculiarities were observed.

[7] = Cytotoxicity assay using MTT; assay type: cell-based; settings: dog, MDCK cells infected with influenza virus (K09), MDCK cell infected with K09; compound 24 hours; read-out: MTT assay (Experimental Example 3) CC50
Protocol: as §1, §2

[8] = Influenza A virus, Solomon (H1N1), read-out: EC50

Compound | SI value K09 ([1]; K09, CC50/EC50) | Plaque reduction (Experimental Example 2) EC50 ([1]; K09, MDCK cell, 72 hours) [µg/mL] | MTT assay (Experimental Example 3) CC50 [2] | GFP reduction (Experimental Example 1) effect [3] | Plaque reduction (Experimental Example 2) EC50 [1] [µg/mL] | SI value K09 [1] | SI value [4] | EC50 ([4]; Solomon (H1N1)) [µg/mL] | SI value [5] | EC50 ([5]; B/Field) | LD50 [6] | EC50 [1] [µg/mL] | CC50 at 24 h [7] [µg/mL] | EC50 [4, 8] [µg/mL] | SI value ([4]; Solomon (H1N1), CC50/EC50) | SI value ([5]; B/Field, CC50/EC50) | EC50 ([5]; unidentified influenza virus) [µg/mL] | LD50 at 14 days [6] [mg/kg]
Nc1onc(-c2ccc(OC(F)(F)F)cc2)c1C(=O)N1CCN(c2ccc(Cl)c(Cl)c2)CC1 [Example 99] | 0.32 to 1.59 | 21 to 45 | 14.62 to 33.52 µg/mL | ◯ |  |  |  |  |  |  |  |  |  |  |  |  |  | 
CCOC(=O)C1CCN(C(=O)c2c(-c3ccccc3OC(F)(F)F)noc2N)CC1 [Example 124] |  |  | 312.5 µg/mL | ◯ | 3.125 to 6.25 | 50 to 100 | 50 | 6.25 (≈ 14.6 µM) | 6.25> | 50< μg/ml | 2,000< mg/kg |  |  |  |  |  |  | 
Cc1onc(-c2cccc(F)c2)c1C(=O)N1CCN(c2ccccc2O)CC1 [Example 16, (3-(3-fluorophenyl)-5-methylisoxazol-4-yl)(4-(2-hydroxyphenyl)piperazine-1-yl)methanone] | 200.321 |  | 78.125 µg/mL | ◯ |  |  |  |  |  |  |  | 0.39 (≈ 1.02 µM) | 78.1 (≈ 205 µM) | 0.097 to 0.195 (≈ 0.254 to 0.511 µM) | 400.641 to 805.412 | 3.125 | 25 (≈ 65.5 µM) | > 2000
Nc1onc(-c2ccccc2OC(F)(F)F)c1C(=O)N1CCN(c2ccc(Cl)c(Cl)c2)CC1 [Example 83] | 100.2 to 291.75 | 0.65 to 1.5 | 150.3 to 189.64 µg/mL | ◯ |  |  |  |  |  |  | 2,000< mg/kg |  |  |  |  |  |  | 
COc1cccc(N2CCN(C(=O)c3c(-c4ccccc4Cl)noc3C)CC2)c1 [Example 9, (3-(2-chlorophenyl)-5-methylisoxazol-4-yl)(4-(3-methoxyphenyl)piperazine-1-yl)methanone] | 801.282 to 3205.128 |  |  | ◯ |  |  |  |  |  |  |  | 0.195 to 0.39 (≈ 0.473 to 0.947 µM) | 312 to 625 (≈ 759 to 1520 µM) | 0.048 to 0.097 (≈ 0.117 to 0.236 µM) | 3221.649 to 13020.833 |  | > 50 | > 2000
COc1cccc(N2CCN(C(=O)c3c(-c4ccccc4Cl)noc3N)CC2)c1 [Example 60, (5-amino-3-(2-chlorophenyl)isoxazol-4-yl)(4-(3-methoxyphenyl)piperazine-1-yl)methanone] |  |  |  | ◯ |  |  |  |  |  |  |  | 0.195 (≈ 0.473 µM) | > 500 | 0.053 to 0.094 (≈ 0.128 to 0.228 µM) |  | 80< | 6.25 (≈ 15.1 µM) | > 2000
CCOC(=O)C1=C[C@@H](OC(CC)CC)[C@H](NC(C)=O)[C@@H](N)C1 [Oseltamivir, reference compound] |  |  |  | X |  |  |  |  |  |  |  | 0.391 (≈ 1.25 µM) | 625 to 1250 (≈ 2000 to 4000 µM) | 3.12 to 6.25 (≈ 10 to 20 µM) | 100 to 400 | 200 to 100 | 6.25 (≈ 20 µM) | > 2000
COc1cccc(N2CCN(C(=O)c3c(-c4ccccc4C(F)(F)F)noc3C)CC2)c1 [Example 3, (4-(3-methoxyphenyl)piperazine-1-yl)(5-methyl-3-(2-(trifluoromethyl)phenyl)isoxazol-4-yl)methanone] | 473.84 to 1903.03 |  |  | ◯ |  |  |  |  |  |  |  | 0.33 to 0.65 (≈ 0.741 to 1.46 µM) | 308 to 628 (≈ 691 to 1410 µM) | 0.064 to 0.094 (≈ 0.144 to 0.211 µM) | 3276.59 to 9812.50 |  | > 50 | > 2000
Cc1onc(-c2cccc(F)c2)c1C(=O)N1CCN(c2ccc(Cl)c(Cl)c2)CC1 [Example 11, (4-(3,4-dichlorophenyl)piperazine-1-yl)(3-(3-fluorophenyl)-5-methylisoxazol-4-yl)methanone] |  |  |  | ◯ |  |  |  |  |  |  |  | < 0.16 | 287 to 625 (≈ 661 to 1440 µM) | 0.087 to 0.199 (≈ 0.2 to 0.458 µM) | 1442.211 to 7183.908 | 67.529 to 147.058 | 4.25 (≈ 9.79 µM) | > 2000
COc1cccc(N2CCN(C(=O)c3c(-c4ccccc4C(F)(F)F)noc3N)CC2)c1 [Example 92] | 0.32 to 1.59 | 21 to 45 | 14.62 to 33.52 µg/mL | ◯ |  |  |  |  |  |  |  |  |  |  |  |  |  | 
COc1ccccc1N1CCN(C(=O)c2c(-c3ccccc3C(F)(F)F)noc2C)CC1 [Example 4] |  |  | 78.12 to 156.25 µg/mL and 78.125 to 156.25 µg/mL | ◯ | 12.5 to 25 | 3.125 to 12.5 | 6.25 to 12.5 | 12.5 (≈ 28.1 µM) | 1.563> | 50< μg/ml | 2,000< mg/kg |  |  |  |  |  |  | 
COc1cccc(N2CCN(C(=O)c3c(-c4ccccc4OC(F)(F)F)noc3C)CC2)c1 [Example 36] | 320< | 1.56 | 500< μg/ml | ◯ |  |  |  |  |  |  |  |  |  |  |  |  |  | 

Reference: patent US9132126B2, “Phenyl-isoxazole derivatives and preparation process thereof” (priority 2011, dated 2015)
